The structures appear in SMILES notation.

The target of this test is SIK2 (Homo sapiens, UniProt Q9H0K1). Nature of the test: SIK2 Enzymatic Assay High Version 2 (High ATP). The class given is biochemical. Conditions: enzyme 6 nM, 6 mM ATP and 400 μM HDAC5tide (each 2× final concentration); 30 minutes pre-incubation, 2 hours; ADP-Glo Max luminescence; read-out: SIK2 high ATP IC50 (μM) (Test Example 2). The gist of the method:
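At room temperature, enzyme (6 nM, 2× final) was preincubated with compound for 30 min, then 6 mM ATP and 400 μM HDAC5tide (both 2× final) were added for 2 h. ADP formed was measured by ADP-Glo Max (2 h reagent, 1 h detection) using luminescence.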
On the technique in general: In ADP-Glo the light output rises with the ADP produced.

SIK2, sequence (Q9H0K1 whole entry, species assumed): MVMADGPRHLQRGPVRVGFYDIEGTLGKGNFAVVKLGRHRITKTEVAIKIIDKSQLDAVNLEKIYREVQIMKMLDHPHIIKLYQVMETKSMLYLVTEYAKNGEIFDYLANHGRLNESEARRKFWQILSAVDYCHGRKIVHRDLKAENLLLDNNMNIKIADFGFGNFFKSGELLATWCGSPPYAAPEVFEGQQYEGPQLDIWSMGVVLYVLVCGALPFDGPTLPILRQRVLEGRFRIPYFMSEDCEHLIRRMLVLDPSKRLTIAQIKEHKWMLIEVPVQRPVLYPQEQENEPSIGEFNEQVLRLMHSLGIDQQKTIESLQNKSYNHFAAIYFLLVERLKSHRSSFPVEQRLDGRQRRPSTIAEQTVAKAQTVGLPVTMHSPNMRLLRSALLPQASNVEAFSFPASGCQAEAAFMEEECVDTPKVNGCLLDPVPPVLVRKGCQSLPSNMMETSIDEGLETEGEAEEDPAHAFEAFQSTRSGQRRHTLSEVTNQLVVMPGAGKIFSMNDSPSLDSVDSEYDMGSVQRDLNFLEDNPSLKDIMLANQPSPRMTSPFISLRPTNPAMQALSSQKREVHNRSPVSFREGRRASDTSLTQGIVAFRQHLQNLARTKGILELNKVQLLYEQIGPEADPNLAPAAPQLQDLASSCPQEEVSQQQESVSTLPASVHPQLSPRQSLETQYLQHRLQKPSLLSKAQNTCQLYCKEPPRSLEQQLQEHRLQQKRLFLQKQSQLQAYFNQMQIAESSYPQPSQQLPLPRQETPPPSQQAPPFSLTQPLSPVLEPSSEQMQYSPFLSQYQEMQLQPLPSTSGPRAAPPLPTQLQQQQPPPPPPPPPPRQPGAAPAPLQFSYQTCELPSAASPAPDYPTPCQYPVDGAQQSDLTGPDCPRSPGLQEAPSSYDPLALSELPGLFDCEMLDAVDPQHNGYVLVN

For orientation: IC50 means the point on the concentration scale where inhibition reaches its midpoint. As to `CCc1nc(C)cc(Nc2cc3cc(-c4cc(C)ncc4OCC(C)(C)O)ccn3n2)n1` [Example 202, 1-[[4-[2-[(2-ethyl-6-methyl-pyrimidin-4-yl)amino]pyrazolo[1,5-a]pyridin-5-yl]-6-methyl-3-pyridyl]oxy]-2-methyl-propan-2-ol], the IC50 was 0.00758 µM.

In the case of `Cc1cc(-c2ccn3nc(Nc4cc(C)nc(C)n4)cc3c2)c(OC[C@H]2C[C@@H](O)CO2)cn1` [Example 204, (3R,5R)-5-[[4-[2-[(2,6-dimethylpyrimidin-4-yl)amino]pyrazolo[1,5-a]pyridin-5-yl]-6-methyl-3-pyridyl]oxymethyl]tetrahydrofuran-3-ol], the IC50 stood at 0.087 µM.

Turning to `COCc1nc(C)cc(Nc2cc3cc(-c4cc(C)ncc4OCC(C)(C)O)ccn3n2)n1` [Example 205, 1-[[4-[2-[[2-(methoxymethyl)-6-methyl-pyrimidin-4-yl]amino]pyrazolo[1,5-a]pyridin-5-yl]-6-methyl-3-pyridyl]oxy]-2-methyl-propan-2-ol], the IC50 was determined as 0.0181 µM.

As to `Cc1cc(-c2ccn3nc(Nc4cc(C)c(=O)[nH]n4)cc3c2)c(OCC(C)(C)O)cn1` [Example 208, 3-[[5-[5-(2-hydroxy-2-methyl-propoxy)-2-methyl-4-pyridyl]pyrazolo[1,5-a]pyridin-2-yl]amino]-5-methyl-1H-pyridazin-6-one], the IC50 was found to be 0.00856 µM.

Consider `Cc1cc(-c2ccn3nc(Nc4cc(C)c(=O)n(C)n4)cc3c2)c(OCC(C)(C)O)cn1` [Example 209, 6-[[5-[5-(2-hydroxy-2-methyl-propoxy)-2-methyl-4-pyridyl]pyrazolo[1,5-a]pyridin-2-yl]amino]-2,4-dimethyl-pyridazin-3-one], for which the IC50 worked out at 0.0171 µM.

With `Cc1cc(-c2ccn3nc(Nc4cc(C)nc(C)n4)cc3c2)c(OCC2(O)CCC2)cn1` [Example 217, 1-[[4-[2-[(2,6-dimethylpyrimidin-4-yl)amino]pyrazolo[1,5-a]pyridin-5-yl]-6-methyl-3-pyridyl]oxymethyl]cyclobutanol], the IC50 worked out at 0.0279 µM.

Regarding `Cc1cc(-c2ccn3nc(Nc4cc(C)nc(C)n4)cc3c2)c(OC[C@H]2OCC[C@@H]2O)cn1` [Example 218, (2R,3S)-2-[[4-[2-[(2,6-dimethylpyrimidin-4-yl)amino]pyrazolo[1,5-a]pyridin-5-yl]-6-methyl-3-pyridyl]oxymethyl]tetrahydrofuran-3-ol], the IC50 came to 0.00407 µM.

In the case of `Cc1cc(-c2ccn3nc(NC(=O)C4CC4)cc3c2)c(OCC2(C#N)CNC2)cn1` [Example 221, N-[5-[5-[(3-cyanoazetidin-3-yl)methoxy]-2-methyl-4-pyridyl]pyrazolo[1,5-a]pyridin-2-yl]cyclopropanecarboxamide], the IC50 is 0.00234 µM.

Consider `CCc1nc(C)cc(Nc2cc3cc(-c4cc(C)ncc4O[C@H]4CC[C@H](O)CC4)ccn3n2)n1` [Example 224, (1r,4r)-4-((4-(2-((2-ethyl-6-methylpyrimidin-4-yl)amino)pyrazolo[1,5-a]pyridin-5-yl)-6-methylpyridin-3-yl)oxy)cyclohexan-1-ol], for which the IC50 was 0.00127 µM.

As for `COCc1nc(C)cc(Nc2cc3cc(-c4cc(C)ncc4O[C@H]4CC[C@H](O)CC4)ccn3n2)n1` [Example 225, (1r,4r)-4-((4-(2-((2-(methoxymethyl)-6-methylpyrimidin-4-yl)amino)pyrazolo[1,5-a]pyridin-5-yl)-6-methylpyridin-3-yl)oxy)cyclohexan-1-ol], the IC50 was 0.00343 µM.

On to `Cc1cc(-c2ccn3nc(Nc4cc(C)c(=O)n(C)n4)cc3c2)c(O[C@H]2CC[C@H](O)CC2)cn1` [Example 226, 6-((5-(5-(((1r,4r)-4-hydroxycyclohexyl)oxy)-2-methylpyridin-4-yl)pyrazolo[1,5-a]pyridin-2-yl)amino)-2,4-dimethylpyridazin-3(2H)-one], for which the IC50 worked out at 0.00126 µM.

As to `CNc1nc(C)cc(Nc2cc3cc(-c4cc(C)ncc4O[C@H]4CC[C@H](O)CC4)ccn3n2)n1` [Example 227, (1r,4r)-4-((6-methyl-4-(2-((6-methyl-2-(methylamino)pyrimidin-4-yl)amino)pyrazolo[1,5-a]pyridin-5-yl)pyridin-3-yl)oxy)cyclohexan-1-ol], the IC50 is < 0.000847 µM.

Consider `CNc1nc(C)cc(Nc2cc3cc(-c4cc(C)ncc4OCC(C)(C)O)ccn3n2)n1` [Example 228, 2-methyl-1-[[6-methyl-4-[2-[[6-methyl-2-(methylamino)pyrimidin-4-yl]amino]pyrazolo[1,5-a]pyridin-5-yl]-3-pyridyl]oxy]propan-2-ol], for which the half-maximal inhibitory concentration (IC50) came to 0.00167 µM.

As to `Cc1cc(-c2ccn3nc(Nc4cc(C)nc(C5CC5)n4)cc3c2)c(OCC(C)(C)O)cn1` [Example 229, 1-[[4-[2-[(2-cyclopropyl-6-methyl-pyrimidin-4-yl)amino]pyrazolo[1,5-a]pyridin-5-yl]-6-methyl-3-pyridyl]oxy]-2-methyl-propan-2-ol], the IC50 amounted to 0.00587 µM.

Take `COC1(COc2cnc(C)cc2-c2ccn3nc(NC(=O)C4CC4)cc3c2)CNC1` [Example 233, N-[5-[5-[(3-methoxyazetidin-3-yl)methoxy]-2-methyl-4-pyridyl]pyrazolo[1,5-a]pyridin-2-yl]cyclopropanecarboxamide]: the IC50 amounted to 0.00309 µM.

Consider `Cc1cc(-c2ccn3nc(NC(=O)[C@@H]4C[C@H]4C)cc3c2)c(OC[C@@]23CN[C@@H](CO2)C3)cn1` [Example 234, (1R,2R)-2-methyl-N-[5-[2-methyl-5-[[(1R,4R)-5-oxa-2-azabicyclo[2.2.1]heptan-4-yl]methoxy]-4-pyridyl]pyrazolo[1,5-a]pyridin-2-yl]cyclopropanecarboxamide], for which the IC50 came to 0.00837 µM.

As for `Cc1cc(-c2ccn3nc(Nc4ccc(C5CC5)nn4)cc3c2)c(OC[C@]23C[C@H](CO2)N(C)C3)cn1` [Example 235, N-(6-cyclopropylpyridazin-3-yl)-5-[2-methyl-5-[[(1R,4R)-2-methyl-5-oxa-2-azabicyclo[2.2.1]heptan-4-yl]methoxy]-4-pyridyl]pyrazolo[1,5-a]pyridin-2-amine], the IC50 stood at 0.0199 µM.

Consider `Cc1cnc(Nc2cc3cc(-c4cc(C)ncc4OC[C@]45C[C@H](CO4)N(C)C5)ccn3n2)cn1` [Example 236, 5-[2-methyl-5-[[(1R,4R)-2-methyl-5-oxa-2-azabicyclo[2.2.1]heptan-4-yl]methoxy]-4-pyridyl]-N-(5-methylpyrazin-2-yl)pyrazolo[1,5-a]pyridin-2-amine], for which the half-maximal inhibitory concentration (IC50) was 0.0172 µM.

For the compound `Cc1cc(-c2ccn3nc(NC(=O)C4CC4)cc3c2)c(OC[C@@]23C[C@@H](CO2)N(C)C3)cn1` [Example 237, N-[5-[2-methyl-5-[[(1S,4S)-2-methyl-5-oxa-2-azabicyclo[2.2.1]heptan-4-yl]methoxy]-4-pyridyl]pyrazolo[1,5-a]pyridin-2-yl]cyclopropanecarboxamide], the IC50 is 0.0282 µM.

For `Cc1cc(-c2ccn3nc(Nc4cc(C)nc(C)n4)cc3c2)c(OC[C@@]23CN[C@@H](CO2)C3)cn1` [Example 238, N-(2,6-dimethylpyrimidin-4-yl)-5-[2-methyl-5-[[(1R,4R)-5-oxa-2-azabicyclo[2.2.1]heptan-4-yl]methoxy]-4-pyridyl]pyrazolo[1,5-a]pyridin-2-amine], the IC50 was found to be 0.00226 µM.

Take `Cc1cc(-c2ccn3nc(Nc4ccc5cc[nH]c5n4)cc3c2)c(O[C@H]2CC[C@H](O)CC2)cn1` [Example 239, 4-[[6-methyl-4-[2-(1H-pyrrolo[2,3-b]pyridin-6-ylamino)pyrazolo[1,5-a]pyridin-5-yl]-3-pyridyl]oxy]cyclohexanol]: the IC50 was 0.00245 µM.

With `Cc1cc(-c2ccn3nc(Nc4ccc5cc[nH]c5n4)cc3c2)c(OCC(C)(C)O)cn1` [Example 240, 2-methyl-1-[[6-methyl-4-[2-(1H-pyrrolo[2,3-b]pyridin-6-ylamino)pyrazolo[1,5-a]pyridin-5-yl]-3-pyridyl]oxy]propan-2-ol], the IC50 is 0.016 µM.

Regarding `COc1cc(Nc2cc3cc(-c4cc(C)ncc4O[C@H]4CC[C@H](O)CC4)ccn3n2)cc(OC)c1C(=O)NCC(F)(F)F` [Example 241, 4-[[5-[5-(4-hydroxycyclohexoxy)-2-methyl-4-pyridyl]pyrazolo[1,5-a]pyridin-2-yl]amino]-2,6-dimethoxy-N-(2,2,2-trifluoroethyl)benzamide], the IC50 was found to be 0.0401 µM.

As to `COc1cc(Nc2cc3cc(-c4cc(C)ncc4O[C@H]4CC[C@H](O)CC4)ccn3n2)ccc1C(=O)NC1CC1` [Example 242, N-cyclopropyl-4-[[5-[5-(4-hydroxycyclohexoxy)-2-methyl-4-pyridyl]pyrazolo[1,5-a]pyridin-2-yl]amino]-2-methoxy-benzamide], the IC50 stood at 0.0448 µM.

Consider `CCNC(=O)c1c(OC)cc(Nc2cc3cc(-c4cc(C)ncc4O[C@H]4CC[C@H](O)CC4)ccn3n2)cc1OC` [Example 243, N-ethyl-4-[[5-[5-(4-hydroxycyclohexoxy)-2-methyl-4-pyridyl]pyrazolo[1,5-a]pyridin-2-yl]amino]-2,6-dimethoxy-benzamide], for which the IC50 amounted to 0.0351 µM.

With `Cc1cc(Nc2cc3cc(-c4cc(C)ncc4OCC(C)(C)O)ccn3n2)nc(C(=O)N(C)C)c1` [Example 244, 6-[[5-[5-(2-hydroxy-2-methyl-propoxy)-2-methyl-4-pyridyl]pyrazolo[1,5-a]pyridin-2-yl]amino]-N,N,4-trimethyl-pyridine-2-carboxamide], the IC50 is 0.0218 µM.

Turning to `COc1cc(Nc2cc3cc(-c4cc(C)ncc4O[C@H]4CC[C@H](O)CC4)ccn3n2)cc(OC)c1C(=O)NC1CC1` [Example 245, N-cyclopropyl-4-[[5-[5-(4-hydroxycyclohexoxy)-2-methyl-4-pyridyl]pyrazolo[1,5-a]pyridin-2-yl]amino]-2,6-dimethoxy-benzamide], the IC50 was determined as 0.0239 µM.

Consider `COC(=O)c1ccc(Nc2cc3cc(-c4cc(C)ncc4O[C@H]4CC[C@H](O)CC4)ccn3n2)cc1OC` [Example 246, methyl 4-[[5-[5-(4-hydroxycyclohexoxy)-2-methyl-4-pyridyl]pyrazolo[1,5-a]pyridin-2-yl]amino]-2-methoxy-benzoate], for which the 50% inhibitory concentration (IC50) was determined as 0.0441 µM.

Values taken from patent US20240158392A1 (Janssen Biotech, Inc., priority 2021, published 2024).
